In patent US20150105252A1, “SUBSTITUTED PYRAZOLES AS HERBICIDES” (E I DU PONT DE NEMOURS AND COMPANY, priority 2013, published 2015):

Legend:
[1] = test system: barnyardgrass; assay: Test A preemergence; format: in vivo, Echinochloa crus-galli; settings: preemergence
Summary of the method: (§1)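 Injury readout: eye-scored versus untreated controls, 0 to 100. Exposure period: ~10 days, greenhouse. Application: soil-directed spray over sown seed (pre) or spray on seedlings 2–10 cm tall with one or two leaves (post), compound carried in non-phytotoxic solvent including surfactant.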

[2] = test system: crabgrass, large; assay: Test A preemergence; format: in vivo, Digitaria sanguinalis; settings: preemergence
Summary of the method: as §1

[3] = test system: foxtail, giant; assay: Test A preemergence; format: in vivo, Setaria faberii; settings: preemergence
Summary of the method: as §1

[4] = test system: morningglory; assay: Test A preemergence; format: in vivo, Ipomoea spp.; settings: preemergence
Summary of the method: as §1

[5] = test system: pigweed; assay: Test A preemergence; format: in vivo, Amaranthus retroflexus; settings: preemergence
Summary of the method: as §1

[6] = test system: velvetleaf; assay: Test A preemergence; format: in vivo, Abutilon theophrasti; settings: preemergence
Summary of the method: as §1

[7] = test system: wheat; assay: Test A preemergence; format: in vivo, Triticum aestivum; settings: preemergence
Summary of the method: as §1

[8] = test system: corn; assay: Test A preemergence; format: in vivo, Zea mays; settings: preemergence
Summary of the method: as §1

[9] = test system: barnyardgrass; assay: Test A postemergence; format: in vivo, Echinochloa crus-galli
Summary of the method: as §1

[10] = test system: crabgrass, large; assay: Test A postemergence; format: in vivo, Digitaria sanguinalis
Summary of the method: as §1

[11] = test system: foxtail, giant; assay: Test A postemergence; format: in vivo, Setaria faberii
Summary of the method: as §1

[12] = test system: morningglory; assay: Test A postemergence; format: in vivo, Ipomoea spp.
Summary of the method: as §1

[13] = test system: pigweed; assay: Test A postemergence; format: in vivo, Amaranthus retroflexus
Summary of the method: as §1

[14] = test system: velvetleaf; assay: Test A postemergence; format: in vivo, Abutilon theophrasti
Summary of the method: as §1

[15] = test system: wheat; assay: Test A postemergence; format: in vivo, Triticum aestivum
Summary of the method: as §1

[16] = test system: corn; assay: Test A postemergence; format: in vivo, Zea mays
Summary of the method: as §1

[17] = test system: rice; assay: Test B flood; format: in vivo, Oryza sativa; settings: 250 g ai/ha, visual rating on 0 to 100 scale (0 no effect, 100 complete control), 13 to 15 days
Summary of the method: (§2)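 Visual ratings (0 = no effect, 100 = complete control) versus untreated controls were taken 13–15 days after treatment of greenhouse plants. Treatment was added to paddy water held at 3 cm depth on 2-leaf-stage seedlings.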

[18] = test system: sedge, umbrella; assay: Test B flood; format: in vivo, Cyperus difformis; settings: 250 g ai/ha, visual rating on 0 to 100 scale (0 no effect, 100 complete control), 13 to 15 days
Summary of the method: as §2

[19] = test system: ducksalad; assay: Test B flood; format: in vivo, Heteranthera limosa; settings: 250 g ai/ha, visual rating on 0 to 100 scale (0 no effect, 100 complete control), 13 to 15 days
Summary of the method: as §2

[20] = test system: barnyardgrass; assay: Test B flood; format: in vivo, Echinochloa crus-galli; settings: 250 g ai/ha, visual rating on 0 to 100 scale (0 no effect, 100 complete control), 13 to 15 days
Summary of the method: as §2

[21] = 125 g ai/ha, visual injury, 0 to 100 scale, approx. 10 days
[22] = 500 g ai/ha, visual injury after approx. 10 days, 0 to 100 scale (0 no effect, 100 complete control)
[23] = Postemergence, 500 g ai/ha, visual rating after approx. 10 days, 0 to 100 scale (0 no effect, 100 complete control)
[24] = postemergence, 125 g ai/ha, about 10 days, visual rating on 0 to 100 scale (0 no effect, 100 complete control)

| Compound | Barnyardgrass plant response rating [1, 21] | Barnyardgrass plant response rating [1, 22] | Crabgrass, Large plant response rating [2, 21] | Crabgrass, Large plant response rating [2, 22] | Foxtail, Giant plant response rating [3, 21] | Foxtail, Giant plant response rating [3, 22] | Morningglory plant response rating [4, 21] | Morningglory plant response rating [4, 22] | Pigweed plant response rating [5, 21] | Pigweed plant response rating [5, 22] | Velvetleaf plant response rating [6, 21] | Velvetleaf plant response rating [6, 22] | Wheat plant response rating [7, 21] | Wheat plant response rating [7, 22] | Corn plant response rating [8, 21] | Corn plant response rating [8, 22] | Barnyardgrass plant response rating [9, 23] | Crabgrass, Large plant response rating [10, 23] | Crabgrass, Large plant response rating [10, 24] | Foxtail, Giant plant response rating [11, 23] | also measured |
| --- | --- | --- | --- | --- | --- | --- | --- | --- | --- | --- | --- | --- | --- | --- | --- | --- | --- | --- | --- | --- | --- |
| CCCc1cc(C(=O)NC2CC2)nn1Oc1ccnc(C(F)(F)F)c1 [Compound 93] | 0 | 90 | 70 | 100 | 30 | 100 | 0 | 50 | 30 | 100 | 0 | 0 | 0 | 30 | 0 | 80 | 40 | 80 | 20 | 80 | Barnyardgrass plant response rating ([9]; Postemergence, 125 g ai/ha, 0 to 100 scale, 0 no effect, 100 complete control): 0; Foxtail, Giant plant response rating [11, 24]: 20; Morningglory plant response rating [12, 23]: 60; Morningglory plant response rating [12, 24]: 0; Pigweed plant response rating [13, 23]: 60; Pigweed plant response rating [13, 24]: 20; Velvetleaf plant response rating [14, 23]: 20; Velvetleaf plant response rating [14, 24]: 0; Wheat plant response rating [15, 23]: 40; Wheat plant response rating [15, 24]: 20; Corn plant response rating [16, 23]: 90; Corn plant response rating [16, 24]: 0; Plant response rating, Rice [17]: 0; Plant response rating, Sedge, Umbrella [18]: 50; Plant response rating, Ducksalad [19]: 50; Plant response rating, Barnyardgrass [20]: 0 |
| CCc1cc(C(=O)NOC)nn1Cc1ccnc(C(F)(F)F)c1 [Compound 99] | 40 | 100 | 100 | 100 | 90 | 100 | 60 | 100 | 90 | 100 | 10 | 80 | 0 | 60 | 50 | 90 | 90 | 100 | 60 | 100 | Barnyardgrass plant response rating [9, 24]: 20; Foxtail, Giant plant response rating [11, 24]: 60; Morningglory plant response rating [12, 23]: 100; Morningglory plant response rating [12, 24]: 50; Pigweed plant response rating [13, 23]: 100; Pigweed plant response rating [13, 24]: 70; Velvetleaf plant response rating [14, 23]: 90; Velvetleaf plant response rating [14, 24]: 20; Wheat plant response rating [15, 23]: 70; Wheat plant response rating [15, 24]: 20; Corn plant response rating [16, 23]: 90; Corn plant response rating [16, 24]: 50; Plant response rating, Rice [17]: 0; Plant response rating, Sedge, Umbrella [18]: 75; Plant response rating, Ducksalad [19]: 50; Plant response rating, Barnyardgrass [20]: 0 |
| CCc1cc(-c2ccc(F)cc2)nn1Cc1ccnc(C(F)(F)F)c1 [Compound 111] | 10 | 90 | 90 | 100 | 90 | 100 | 0 | 30 | 20 | 100 | 10 | 30 | 0 | 0 | 0 | 0 | 80 | 100 | 30 | 100 | Barnyardgrass plant response rating [9, 24]: 20; Foxtail, Giant plant response rating [11, 24]: 40; Morningglory plant response rating [12, 23]: 100; Morningglory plant response rating [12, 24]: 90; Pigweed plant response rating [13, 23]: 100; Pigweed plant response rating [13, 24]: 80; Velvetleaf plant response rating [14, 23]: 90; Velvetleaf plant response rating [14, 24]: 40; Wheat plant response rating [15, 23]: 30; Wheat plant response rating [15, 24]: 10; Corn plant response rating [16, 23]: 50; Corn plant response rating [16, 24]: 10; Plant response rating, Rice [17]: 20; Plant response rating, Sedge, Umbrella [18]: 90; Plant response rating, Ducksalad [19]: 0; Plant response rating, Barnyardgrass [20]: 15 |
